Measurements as given in ChEMBL document CHEMBL5465560, “Selectivity Literature for EUbOPEN Chemogenomic Library” (2024).
Each block holds one molecule with its values, some of them ahead of it.

Legend:
[1] = biological target: Protein kinase C gamma type (Homo sapiens) (UniProt P05129); assay: Selectivity interaction (Kinase panel (Z-LYTE Assay)) EUB0001632a PRKCG; conditions: at 10 µM
[2] = biological target: T1, Serine/threonine-protein kinase ULK3 (Homo sapiens) (UniProt Q6PHR2); assay: Selectivity interaction (KinomeScan (DiscoverX)) EUB0000229b ULK3; conditions: at 10 µM
T1 sequence (whole entry): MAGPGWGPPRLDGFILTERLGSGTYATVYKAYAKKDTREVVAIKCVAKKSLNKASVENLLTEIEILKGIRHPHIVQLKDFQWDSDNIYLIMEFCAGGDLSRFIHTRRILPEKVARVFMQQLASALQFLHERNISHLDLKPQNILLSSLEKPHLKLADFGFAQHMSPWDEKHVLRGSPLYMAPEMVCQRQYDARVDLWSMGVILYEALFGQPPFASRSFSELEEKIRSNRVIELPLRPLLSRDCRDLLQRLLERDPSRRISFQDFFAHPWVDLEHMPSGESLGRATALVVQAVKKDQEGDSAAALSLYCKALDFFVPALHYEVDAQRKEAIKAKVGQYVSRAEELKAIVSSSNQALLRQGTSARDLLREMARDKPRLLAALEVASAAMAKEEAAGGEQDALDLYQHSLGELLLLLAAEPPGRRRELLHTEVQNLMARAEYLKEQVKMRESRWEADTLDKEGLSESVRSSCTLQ

[3] = biological target: T2, Ephrin type-B receptor 3 (Homo sapiens) (UniProt P54753); assay: Selectivity interaction (KinomeScan (DiscoverX)) EUB0001079a EPHB3; conditions: at 1 µM
T2 sequence (whole entry): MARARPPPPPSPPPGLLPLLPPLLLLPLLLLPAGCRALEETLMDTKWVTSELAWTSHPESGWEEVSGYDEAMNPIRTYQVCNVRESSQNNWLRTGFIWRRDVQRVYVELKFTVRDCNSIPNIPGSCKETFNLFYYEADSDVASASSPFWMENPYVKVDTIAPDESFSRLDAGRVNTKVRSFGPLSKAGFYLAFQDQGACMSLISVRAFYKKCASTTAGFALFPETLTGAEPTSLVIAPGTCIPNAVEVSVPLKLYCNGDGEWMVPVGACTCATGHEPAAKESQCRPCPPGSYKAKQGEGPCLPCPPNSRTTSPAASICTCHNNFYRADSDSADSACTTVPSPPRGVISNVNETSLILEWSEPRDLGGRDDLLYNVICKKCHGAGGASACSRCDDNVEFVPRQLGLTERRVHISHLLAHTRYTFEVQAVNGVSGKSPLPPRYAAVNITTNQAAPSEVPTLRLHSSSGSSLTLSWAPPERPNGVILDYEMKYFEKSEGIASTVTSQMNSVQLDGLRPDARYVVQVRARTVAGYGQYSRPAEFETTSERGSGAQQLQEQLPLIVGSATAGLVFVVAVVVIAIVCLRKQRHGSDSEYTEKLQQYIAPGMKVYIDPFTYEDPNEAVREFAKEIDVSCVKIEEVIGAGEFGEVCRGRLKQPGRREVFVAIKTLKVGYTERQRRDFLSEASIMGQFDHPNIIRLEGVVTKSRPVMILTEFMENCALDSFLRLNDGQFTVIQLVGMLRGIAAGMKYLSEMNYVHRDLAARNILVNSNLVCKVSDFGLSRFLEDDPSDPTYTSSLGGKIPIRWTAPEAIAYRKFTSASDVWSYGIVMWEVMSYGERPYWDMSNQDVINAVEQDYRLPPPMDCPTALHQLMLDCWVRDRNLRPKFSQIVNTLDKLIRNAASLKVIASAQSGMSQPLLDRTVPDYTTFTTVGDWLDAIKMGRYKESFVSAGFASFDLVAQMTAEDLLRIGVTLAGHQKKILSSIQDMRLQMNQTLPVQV

[4] = biological target: T3, Ephrin type-A receptor 1 (Homo sapiens) (UniProt P21709); assay: Selectivity interaction (ProQinase) EUB0000171b EPHA1
T3 sequence (whole entry): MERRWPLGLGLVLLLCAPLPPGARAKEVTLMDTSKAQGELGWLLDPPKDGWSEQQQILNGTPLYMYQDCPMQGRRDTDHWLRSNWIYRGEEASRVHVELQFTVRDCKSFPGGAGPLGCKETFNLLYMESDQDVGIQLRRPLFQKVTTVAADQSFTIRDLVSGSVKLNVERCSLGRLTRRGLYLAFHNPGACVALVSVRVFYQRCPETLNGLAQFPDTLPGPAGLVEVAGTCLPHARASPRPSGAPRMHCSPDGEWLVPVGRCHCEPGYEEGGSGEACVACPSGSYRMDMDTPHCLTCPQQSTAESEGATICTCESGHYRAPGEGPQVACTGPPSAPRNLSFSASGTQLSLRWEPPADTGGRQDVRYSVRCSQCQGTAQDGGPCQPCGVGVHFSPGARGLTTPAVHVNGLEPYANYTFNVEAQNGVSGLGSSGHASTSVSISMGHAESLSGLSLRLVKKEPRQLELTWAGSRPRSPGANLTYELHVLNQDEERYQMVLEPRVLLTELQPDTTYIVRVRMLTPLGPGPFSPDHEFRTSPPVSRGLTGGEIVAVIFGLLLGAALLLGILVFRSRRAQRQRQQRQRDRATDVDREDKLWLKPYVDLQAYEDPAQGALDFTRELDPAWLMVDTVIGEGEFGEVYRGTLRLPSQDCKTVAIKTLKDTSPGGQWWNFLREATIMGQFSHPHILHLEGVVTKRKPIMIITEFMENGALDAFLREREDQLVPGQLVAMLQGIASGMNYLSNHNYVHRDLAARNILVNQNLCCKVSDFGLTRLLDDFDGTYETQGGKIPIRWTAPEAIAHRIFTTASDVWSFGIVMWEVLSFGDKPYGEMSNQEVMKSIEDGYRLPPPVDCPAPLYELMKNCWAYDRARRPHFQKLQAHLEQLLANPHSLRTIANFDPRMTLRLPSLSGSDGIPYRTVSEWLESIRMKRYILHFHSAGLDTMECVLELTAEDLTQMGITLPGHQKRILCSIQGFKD

- % of control [1]: 11.7%
SMILES: Cn1cc(-n2cnc3c(NCc4nc5cc(Cl)c(Cl)cc5[nH]4)nc(N4CCOCC4)nc32)cn1

SMILES: COc1cc(N(C)c2ccnc3ccc(C(F)(F)F)cc23)cc(OC)c1OC
- % binding [2]: 75%

SMILES: Nc1cnc(N2CCc3cc(S(=O)(=O)Nc4c(F)cc(Cl)cc4F)cc(N4CCCC4=O)c32)nc1 [TP-020n]
- % of control [3]: 100%

- % of control ([4]; at 1 µM): 90%
- % of control ([4]; at 5 µM): 63%
SMILES: C=CC(=O)Nc1cccc(C(=O)Nc2ccc(Nc3cc(-c4[nH]c(SC)nc4C)ccn3)cc2)c1
